Assay results as given in PMC9727064, “Performance assessment and economic analysis of a human Liver-Chip for predictive toxicology” (Communications Medicine, 2022).
Where a name gives a salt, the structure may show the parent alone. Read-outs that look alike come from different tables or passages of the source. Blank lines part the entries; values can stand above or below the molecule they belong to.

Columns and labels:
[1] = tested on: human Liver-Chip (primary human hepatocytes); test: Liver-Chip albumin production in top channel effluent (ELISA); type: cell-based; details: expanded drug list; lowest multiplier causing a 50% reduction in albumin production; donor 1
Excerpt: (§1) Cycles 1 to 4 tested 6–8 concentrations in duplicate for each of 10–13 drugs. To determine which sampling strategy was optimal for cycles 1 to 4 (16 doses × 1 replicate, 8 × 2, 5 × 3, or 4 × 4), we generated three different “dose-response” synthetic datasets, each distorted by different noise levels (low, medium, or high). For each of these datasets, we performed curve-fitting analyses and calculated the Root Mean Square Error between the “true” and estimated IC50 parameter. […] Some drugs were also repeated across cycles (on different donors or at different concentrations) to ensure experimental robustness. However, to replicate a more typical study design likely to be carried out by scientists in the pharmaceutical industry, we created cycle 5 with 6 drugs, where each was tested in 4 concentrations in triplicate. For each cycle, chips were dosed with drug over 8 days (referred to as Day 0 through Day 7).
(§2) The drug dosing concentrations were determined from the unbound human Cmax of each drug. First, the expected fraction of drug unbound in media with 2% FBS was extrapolated from plasma binding data for each drug. Dosing concentrations were then back calculated such that the unbound fraction in media would reflect relevant multiples of unbound human Cmax (Supplementary Data 1).
(§3) On the first dosing day (Day 0), all chips were imaged using the ECHO microscope. Five hundred microliters of effluent was collected from all four reservoirs of the pod and placed in a labeled 96-well plate. After collection, all the remaining media was carefully aspirated before dosing with 3.8 mL of corresponding dosing solution. Dosing occurred on study days 0, 2, and 4 for chips flowing at 30 µL/h, and on days 0, 1, 2, 3, 4, 5, and 6 for chips flowing at 150 µL/h. Effluent collection occurred on days 1, 3, and 7.
(§4) Top channel outlet effluents were analyzed to quantify albumin and alanine transaminase (ALT) levels on days 1, 3, and 7 using sandwich ELISA kits (Abcam, Albumin ab179887, ALT ab234578) according to vendor-provided protocols. Frozen (−80 °C) effluent samples were thawed overnight at 4 °C prior to assay. The Hamilton Vantage liquid handling platform was used to manage effluent dilutions (1:500 for albumin, neat for ALT), preparation of standard curves, and addition of antibody cocktail. Absorbance at 450 nm was measured using the SynergyNeo Microplate Reader (BioTek).
All statistical analyses were conducted in R[21] (version 4.1.2) and figures were produced using the R package ggplot2[22] (version 3.3.5). The dose-response analysis (Fig. 4) was carried out using the popular drc R package developed by Ritz et al.[23] using the generalized log-logistic dose-response model. The error bars in Figs. 3 and 4, correspond to the standard errors of the mean. The circles in Fig. 3 correspond to the samples used to calculate the corresponding statistics. The analysis of significance in Fig. 3 was performed using paired t-test across different days (same donor) and unpaired t-test across different donors (same day). In Fig. 3 the number of samples used were n = 3 for donor two, and n = 4 for donor three. For both donors, the number of the freshly thawed hepatocyte samples used to estimate the corresponding log2(Fold Change) were n = 4. Finally, the analysis of significance in Fig. 3 was performed using paired t-test.

[2] = cited from earlier work
human Liver-Chip = test: Liver-Chip DILI prediction: minimum toxic concentration and margin of safety (MOS)-like figure; details: free IC50 concentration in the assay divided by total concentration of drug in human plasma at Cmax;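 also: Toxic concentration is the lowest across albumin IC50 and ALT and morphology endpoints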
Excerpt: Because the fundamental principles of drug action dictate that free (unbound) drug concentrations drive drug effects, we explored an alternative methodology for calculating the MOS-like values by accounting for protein binding using a previously reported approach. Accordingly, we reanalyzed the findings for the 27 drugs in our study by accounting for protein binding.

[3] = tested on: human Liver-Chip (hepatocyte layer); test: Liver-Chip immunofluorescence imaging (caspase 3/7, TMRM, AdipoRed/LipidTOX); type: cell-based
Method: Chips were detached from pods and washed once with PBS. […] Afterwards, chips were washed with PBS and stored at 4 °C until staining. Following fixation, chips corresponding to low, medium, and high concentrations from each group were cut in half with a razor blade perpendicular to the co-culture channels. One half was used in the following staining protocol, while the other half was stored for future staining. All stains and washes utilized the bubble method, in which a small amount of air is flowed through the channel prior to bulk wash media to prevent a liquid-liquid dilution of the staining solution. […] Following 15 minutes of incubation at room temperature, each channel was washed with 200 µL of PBS (alternating channels, 2× for top and 3× for bottom). As an alternative lipid accumulation marker, 100 µL of HCS LipidTOX Deep Red (ThermoFisher, H34477) was diluted 1:1000 v/v in PBS with NucBlue counterstain and added to the top channel. After a 30 min incubation at room temperature, the chips were again allowed to reach room temperature before the channels were alternatively washed with 200 µL of PBS, the bottom channel undergoing three washes and the top channel undergoing two. Chips were then imaged using the Opera Phenix. Following lipid and DAPI staining and imaging, chips were stained with a […] (MRP2) antibody to visualize the bile canalicular structures characteristic of healthy Liver-Chips. […] Then, each channel was washed with 200 µL of PBS (alternating channels, 2× for top and 3× for bottom). […] Next, primary antibody Mouse anti-MRP2 (Abcam, ab3373) was prepared 1:100 in the original blocking buffer, diluted 1:4 in PBS. 100 µL of solution was added to each channel, and chips were stored overnight at 4 °C. The following day, each channel was washed with 200 µL of PBS (alternating channels, 2× for top and 3× for bottom). […] 100 µL of solution was added to each channel and chips incubated at room temperature, protected from light, for two hours. Then, each channel was washed with 200 µL of PBS (alternating channels, 2× for top and 3× for bottom). Chips were imaged immediately or stored at 4 °C until ready for imaging on the Opera Phenix. Chip replicates designated for live cell imaging were washed with PBS utilizing the bubble method. Chips were then cut in half perpendicular to the co-culture channels. […] The bottom chips halves were stained with NucBlue (Thermo) to visualize nuclei and Tetramethylrhodamine, methyl ester (TMRM) (ThermoFisher, I34361) to visualize active mitochondria. This staining panel was prepared in PBS with 5% FBS, with NucBlue at 2 drops per mL and TMRM at a 1:1000 ratio in original blocking buffer, diluted 1:4 in PBS. Chips were incubated in the dark at 37 °C for 30 min, and then each channel was washed with 200 µL of PBS (alternating channels, 2× for top and 3× for bottom). The chips were kept at 37 °C, protected from light, until ready for imaging with the Opera Phenix. Fluorescent confocal image acquisition was performed using the Opera Phenix High-Content Screening System and Harmony 4.9 Imaging and Analysis Software (PerkinElmer). Before acquisition, the Phenix internal environment was set to 37 °C and 5% CO2. […] Whole chips were placed directly into each slot, while top and bottom half chips were matched and combined in one chip slot. Chips were aligned flush with the adapter and one another. Any bubbles identified from visual inspection were washed out with PBS. Once ready, the stained chips were covered with transparent plate film to seal channel ports and loaded into the Phenix. […] Z-stacks were generated with 3.6 µm between slices for 28–32 planes so that the epithelium was located around the center of the stack. […] Raw images from fixed and live imaging were exported in TIFF format from the Harmony software. Using scripts written for FIJI (ImageJ), TIFFs across three color channels and multiple z-stacks were compiled into composite images for each field of view in each chip. […]

[4] = tested on: clinical drug-induced liver injury; details: clinical DILI severity category 1 to 5; cited from earlier work
[5] = tested on: human Liver-Chip (hepatocytes and non-parenchymal cells); details: for Morphology Donor 1: human
Method: At least four to six brightfield images were acquired per chip for morphology analysis. […] Brightfield images were acquired across three fields of view on days 1, 3, and 7 for each cycle. Cytotoxicity classification was performed while acquiring images for both NPCs and hepatocytes. Images were then scored zero to four by blinded individuals (n = 2) based on severity of agglomeration of cell debris for both channels. The scoring matrix and representative images have been included in the supplement (Supplementary Fig. 1).
Hepatocyte layer on Chips
Non-parenchymal cell layer on Chips
Supplementary Figure 1. (a) Representative brightfield images to depict the cellular morphology score in the top channel of the Liver-Chip which contains hepatocytes. A score of 0 represents no hepatotoxicity detected, which is defined by 95-100% healthy hepatocyte morphology, hexagonal shape containing binucleated cells, clear cell cytoplasm, distinctive cell junctions and less than 5% dead cells. A score of 1 […]
cells. A score of 2 represents mild hepatotoxicity with > 70% monolayer of hepatocytes visible, evidence that cells have begun to lose their distinct cell junctions, many cells contain a granulated cytoplasm but < 30% are dead cells. A score of 3 represents moderate hepatotoxicity with severe granulation of cytoplasm and most of the cells have lost their junctions. Approximately 50% of the cells are considered dead. A score of 4 represents severe hepatotoxicity with agglomeration of cell debris and > 50% of the cells are considered dead. The pores on the membrane become visible as there is no longer a cellular monolayer. (b) Representative brightfield images to depict the cellular morphology score in the bottom channel of the Liver-Chip which contains non-parenchymal cells. A score of 0 represents no cytotoxicity detected, with an intact monolayer and <1% of the cells are dead. A score of 1 represents at least 90% of the monolayer is present and there are <10% dead cells. A score of 2 represents mild cytotoxicity with > 80% of the monolayer present and < 20% are dead cells. A score of 3 represents moderate cytotoxicity with > 50% of the monolayer present and < 50% are dead cells. A score of 4 represents severe cytotoxicity with > 50% of the cells are considered dead. (bar, 50 μm). […]

[6] = tested on: human Liver-Chip (primary human hepatocytes); test: Liver-Chip alanine transaminase (ALT) release in top channel effluent (ELISA); type: cell-based
Excerpt: as §1, §2, §3, §4

[7] = tested on: 3D spheroid cultures of primary human hepatocytes; details: cited from earlier work
[8] = plasma, cited from earlier work
[9] = human, total plasma Cmax, ref Proctor, W.R. et al. (29)

SMILES: C[C@]12CC[C@@H]3c4ccc(O)cc4CC[C@H]3[C@@H]1CC[C@@H]2O [Beta-Estradiol]
Albumin IC50 Donor 1 [1]: >300 unbound human Cmax multiplier | Human Cmax Total ([2]; human, total plasma Cmax, ref Sivapalasingam, S. & Steigbigel, N. H. (67)): 0.0006 µM

SMILES: O=C1CC2(CCCC2)CC(=O)N1CCCCN1CCN(c2ncccn2)CC1 [Buspirone]
Chip MOS donor 1 (human Liver-Chip): >15 | IF imaging Donor 1 ([3]; matched pair analysis): Apoptosis | Garside DILI rank [4]: 4 | Morphology Donor 1 [5]: >300 multiples of the unbound human Cmax | ALT Donor 1 ([6]; lowest concentration causing an increase in ALT protein): > 300 multiples of the unbound human Cmax | Spheroid MOS ([7]; 3D hepatic spheroids, previously published data): 16,300 | Spheroid false negative ([7]; Yes/No, also No for drugs not tested in spheroid): No | Human Cmax Total [2, 9]: 0.009 µM

SMILES: CN(C)CCC(c1ccc(Cl)cc1)c1ccccn1 (stereo not shown) [Chlorpheniramine maleate]
Human Cmax Total [2, 9]: 0.04 µM

SMILES: CN(C)CCC(c1ccc(Cl)cc1)c1ccccn1 (stereo not shown) [Chlorpheniramine]
Chip MOS donor 1 (human Liver-Chip): >200 | Garside DILI rank [4]: 3

SMILES: CN1CCN(C2=Nc3cc(Cl)ccc3Nc3ccccc32)CC1 [Clozapine]
Chip MOS both donors (human Liver-Chip; both donors): 1.8 | Chip MOS donor 1 (human Liver-Chip): 1.8 | Chip MOS donor 2 (human Liver-Chip; donor 2): 5 | Expected Fraction Unbound in Plasma ([8]; ref Lau, S.W.J. (65)): 0.055 | Human Cmax Total [2, 9]: 2.4 µM

SMILES: O=C(O)Cc1ccccc1Nc1c(Cl)cccc1Cl [Diclofenac sodium]
Expected Fraction Unbound in Plasma ([8]; ref Lau, S.W.J. (65)): 0.005 | Human Cmax Total [2, 9]: 10.1 µM

Morphology Donor 1 [5]: 1000 unbound human Cmax multiplier
SMILES: O=C(O)Cc1ccccc1Nc1c(Cl)cccc1Cl [Diclofenac]
Chip MOS donor 1 (human Liver-Chip): 1.8 | Immunofluorescence staining result in words ([3]; caspase 3/7 (apoptosis) or TMRM (mitotoxicity), 7 days): apoptosis-mediated cell death | Immunofluorescent findings, donor one (Supplementary Figure 3) ([3]; day 7 post-drug administration, hepatocyte layer, top channel, donor one): Apoptosis | IF imaging Donor 1 ([3]; expanded drug list): Apoptosis | Morphological injury score change in words [5]: concentration and time-dependent changes | ALT change in words ([6]; Liver-Chip effluent): no elevation of ALT | ALT Donor 1 ([6]; expanded drug list, lowest concentration causing an increase in ALT release): > 1000 unbound human Cmax multiplier | Spheroid MOS [7]: 6.1

SMILES: CCc1nn(CCCN2CCN(c3cccc(Cl)c3)CC2)c(=O)n1CCOc1ccccc1 [Nefazodone hydrochloride]
Human Cmax Total [2, 9]: 4.3 µM

SMILES: Cc1cc2c(cc1CC(=O)c1sccc1S(=O)(=O)[N-]c1onc(C)c1Cl)OCO2.[Na+] [Sitax(s)entan sodium salt]
Expected Fraction Unbound in Plasma ([8]; reference data from the literature, no reference): 0.01 | Human Cmax Total ([2]; human, total plasma Cmax, ref National Center for Biotechnology Information (73)): 28.6 µM

SMILES: N[C@@H]1[C@H]2CN(c3nc4c(cc3F)c(=O)c(C(=O)O)cn4-c3ccc(F)cc3F)C[C@@H]12 [Trovafloxacin mesylate]
Human Cmax Total ([2]; human therapeutic total plasma Cmax from literature, ref Xu, J. J. et al. (36)): 5 µM | Human Cmax Total ([2]; human, total plasma Cmax, ref Xu, J. J. et al. (36)): 5 µM
